Laboratory results published in paper PMC9569420 (Communications Biology, 2022).
“And” between values parts separate entries of the source, which are not always exact repeats. Equal values may be shown once.

Tests used:
ACK1 = target: T1, ACK1 (Homo sapiens, UniProt Q07912); test: HotSpot kinase assay; format: biochemical; conditions: read-out: % Enzyme Activity (relative to DMSO controls)
T1 construct: purchased Reaction Biology Corporation

ALK5/TGFBR1 = target: T2, ALK5/TGFBR1 (Homo sapiens, UniProt P36897); test: HotSpot kinase assay; format: biochemical; conditions: read-out: % Enzyme Activity (relative to DMSO controls)
T2 construct: purchased Reaction Biology Corporation
T2 sequence (P36897 34-503): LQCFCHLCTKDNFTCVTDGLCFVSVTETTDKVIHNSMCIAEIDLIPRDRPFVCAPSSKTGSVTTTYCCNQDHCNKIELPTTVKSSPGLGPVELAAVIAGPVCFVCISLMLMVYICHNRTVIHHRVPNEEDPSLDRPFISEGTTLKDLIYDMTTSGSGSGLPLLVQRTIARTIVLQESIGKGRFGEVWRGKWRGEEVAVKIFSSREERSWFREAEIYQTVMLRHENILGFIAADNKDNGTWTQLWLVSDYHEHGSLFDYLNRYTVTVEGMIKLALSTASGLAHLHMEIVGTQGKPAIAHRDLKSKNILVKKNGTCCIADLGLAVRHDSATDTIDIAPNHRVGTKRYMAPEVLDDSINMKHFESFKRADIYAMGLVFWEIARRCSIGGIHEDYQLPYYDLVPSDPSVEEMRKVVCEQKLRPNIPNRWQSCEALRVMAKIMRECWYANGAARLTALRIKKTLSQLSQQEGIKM

ARK5/NUAK1 = target: T3, ARK5/NUAK1 (Homo sapiens, UniProt O60285); test: HotSpot kinase assay; format: biochemical; conditions: read-out: % Enzyme Activity (relative to DMSO controls)
T3 construct: purchased Reaction Biology Corporation

CAMK1b = target: T4, CAMK1b (Homo sapiens, UniProt Q6P2M8); test: HotSpot kinase assay; format: biochemical; conditions: read-out: % Enzyme Activity (relative to DMSO controls)
T4 construct: purchased Reaction Biology Corporation

CAMKK1 = target: T5, CAMKK1 (Homo sapiens, UniProt Q8N5S9); test: biochemical; conditions: read-out: % Enzyme Activity (relative to DMSO controls)
T5 construct: purchased Reaction Biology Corporation

CDK2/cyclin A = target: T6, CDK2/cyclin A (Homo sapiens, UniProt P24941); test: HotSpot kinase assay; format: biochemical; conditions: read-out: % Enzyme Activity (relative to DMSO controls)
T6 construct: purchased Reaction Biology Corporation

CDK5/p35 = target: T7, CDK5/p35 (Homo sapiens, UniProt Q00535); test: HotSpot kinase assay; format: biochemical; conditions: read-out: % Enzyme Activity (relative to DMSO controls)
T7 construct: purchased Reaction Biology Corporation

CK1a1 = target: T8, CK1a1 (Homo sapiens, UniProt P48729); test: HotSpot kinase assay; format: biochemical; conditions: read-out: % Enzyme Activity (relative to DMSO controls)
T8 construct: purchased Reaction Biology Corporation

CK1d = target: T9, CK1d (Homo sapiens, UniProt P48730); test: HotSpot kinase assay; format: biochemical; conditions: read-out: % Enzyme Activity (relative to DMSO controls)
T9 construct: purchased Reaction Biology Corporation

CK1g2 = target: T10, CK1g2 (Homo sapiens, UniProt P78368); test: HotSpot kinase assay; format: biochemical; conditions: read-out: % Enzyme Activity (relative to DMSO controls)
T10 construct: purchased Reaction Biology Corporation

CSK = target: T11, CSK (Homo sapiens, UniProt P41240); test: HotSpot kinase assay; format: biochemical; conditions: read-out: % Enzyme Activity (relative to DMSO controls)
T11 construct: purchased Reaction Biology Corporation

EPHA3 = target: T12, EPHA3 (Homo sapiens, UniProt P29320); test: HotSpot kinase assay; format: biochemical; conditions: read-out: % Enzyme Activity (relative to DMSO controls)
T12 construct: purchased Reaction Biology Corporation

EPHA7 = target: T13, EPHA7 (Homo sapiens, UniProt Q15375); test: HotSpot kinase assay; format: biochemical; conditions: read-out: % Enzyme Activity (relative to DMSO controls)
T13 construct: purchased Reaction Biology Corporation

EPHB3 = target: T14, EPHB3 (Homo sapiens, UniProt P54753); test: HotSpot kinase assay; format: biochemical; conditions: read-out: % Enzyme Activity (relative to DMSO controls)
T14 construct: purchased Reaction Biology Corporation
T14 sequence (P54753 34-998): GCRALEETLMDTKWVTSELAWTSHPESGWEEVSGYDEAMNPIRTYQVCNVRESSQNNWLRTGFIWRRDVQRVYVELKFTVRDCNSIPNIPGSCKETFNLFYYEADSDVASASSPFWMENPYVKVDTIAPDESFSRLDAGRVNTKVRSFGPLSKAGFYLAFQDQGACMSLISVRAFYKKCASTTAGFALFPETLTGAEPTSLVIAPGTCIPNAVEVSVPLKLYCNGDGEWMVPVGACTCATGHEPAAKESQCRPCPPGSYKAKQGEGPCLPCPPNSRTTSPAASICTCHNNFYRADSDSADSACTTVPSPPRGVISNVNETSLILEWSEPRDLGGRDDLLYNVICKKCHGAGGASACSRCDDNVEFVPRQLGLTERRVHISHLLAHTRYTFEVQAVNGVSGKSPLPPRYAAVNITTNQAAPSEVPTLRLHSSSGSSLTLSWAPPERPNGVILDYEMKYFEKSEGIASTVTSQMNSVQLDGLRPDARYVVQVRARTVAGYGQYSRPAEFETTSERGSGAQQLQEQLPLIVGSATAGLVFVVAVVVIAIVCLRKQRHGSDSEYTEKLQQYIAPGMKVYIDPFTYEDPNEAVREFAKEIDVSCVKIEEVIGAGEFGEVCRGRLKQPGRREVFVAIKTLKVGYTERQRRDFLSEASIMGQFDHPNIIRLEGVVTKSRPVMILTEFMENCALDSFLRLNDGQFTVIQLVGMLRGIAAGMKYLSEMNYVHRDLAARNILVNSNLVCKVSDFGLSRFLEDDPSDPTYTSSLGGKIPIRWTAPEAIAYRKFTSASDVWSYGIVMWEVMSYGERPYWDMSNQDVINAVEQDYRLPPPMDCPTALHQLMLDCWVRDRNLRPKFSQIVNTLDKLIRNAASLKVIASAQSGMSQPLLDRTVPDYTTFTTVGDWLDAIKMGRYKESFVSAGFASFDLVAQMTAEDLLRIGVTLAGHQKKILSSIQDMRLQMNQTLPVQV

ERN1/IRE1 = target: T15, ERN1/IRE1 (Homo sapiens, UniProt O75460); test: HotSpot kinase assay; format: biochemical; conditions: read-out: % Enzyme Activity (relative to DMSO controls)
T15 construct: purchased Reaction Biology Corporation

FGR = target: T16, FGR (Homo sapiens, UniProt P09769); test: HotSpot kinase assay; format: biochemical; conditions: read-out: % Enzyme Activity (relative to DMSO controls)
T16 construct: purchased Reaction Biology Corporation

GSK3b = target: T17, GSK3b (Homo sapiens, UniProt P49841); test: biochemical; conditions: read-out: % Enzyme Activity (relative to DMSO controls)
T17 construct: purchased Reaction Biology Corporation

IRR/INSRR = target: T18, IRR/INSRR (Homo sapiens, UniProt P14616); test: HotSpot kinase assay; format: biochemical; conditions: read-out: % Enzyme Activity (relative to DMSO controls)
T18 construct: purchased Reaction Biology Corporation

JNK1 = target: T19, JNK1 (Homo sapiens, UniProt P45983); test: HotSpot kinase assay; format: biochemical; conditions: read-out: % Enzyme Activity (relative to DMSO controls)
T19 construct: purchased Reaction Biology Corporation

LATS2 = target: T20, LATS2 (Homo sapiens, UniProt Q9NRM7); test: HotSpot kinase assay; format: biochemical; conditions: read-out: % Enzyme Activity (relative to DMSO controls)
T20 construct: purchased Reaction Biology Corporation

LYN B = target: T21, LYN B (Homo sapiens, UniProt P07948); test: HotSpot kinase assay; format: biochemical; conditions: read-out: % Enzyme Activity (relative to DMSO controls)
T21 construct: purchased Reaction Biology Corporation

MAPKAPK3 = target: T22, MAPKAPK3 (Homo sapiens, UniProt Q16644); test: HotSpot kinase assay; format: biochemical; conditions: read-out: % Enzyme Activity (relative to DMSO controls)
T22 construct: purchased Reaction Biology Corporation

MARK2/PAR-1Ba = target: T23, MARK2/PAR-1Ba (Homo sapiens, UniProt Q7KZI7); test: HotSpot kinase assay; format: biochemical; conditions: read-out: % Enzyme Activity (relative to DMSO controls)
T23 construct: purchased Reaction Biology Corporation

MEK3 = target: T24, MEK3 (Homo sapiens, UniProt P46734); test: HotSpot kinase assay; format: biochemical; conditions: read-out: % Enzyme Activity (relative to DMSO controls)
T24 construct: purchased Reaction Biology Corporation
T24 sequence (P46734 whole entry): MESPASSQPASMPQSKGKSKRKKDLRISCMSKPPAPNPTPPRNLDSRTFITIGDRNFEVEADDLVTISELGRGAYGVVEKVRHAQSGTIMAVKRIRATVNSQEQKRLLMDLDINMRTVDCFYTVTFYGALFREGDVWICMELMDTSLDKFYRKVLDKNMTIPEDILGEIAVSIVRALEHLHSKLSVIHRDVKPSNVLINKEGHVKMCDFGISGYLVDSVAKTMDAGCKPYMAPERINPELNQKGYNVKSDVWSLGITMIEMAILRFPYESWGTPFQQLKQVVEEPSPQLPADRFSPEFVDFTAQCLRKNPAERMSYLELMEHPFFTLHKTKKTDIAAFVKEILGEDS

MNK2 = target: T25, MNK2 (Homo sapiens, UniProt Q9HBH9); test: HotSpot kinase assay; format: biochemical; conditions: read-out: % Enzyme Activity (relative to DMSO controls)
T25 construct: purchased Reaction Biology Corporation
T25 sequence (Q9HBH9 whole entry): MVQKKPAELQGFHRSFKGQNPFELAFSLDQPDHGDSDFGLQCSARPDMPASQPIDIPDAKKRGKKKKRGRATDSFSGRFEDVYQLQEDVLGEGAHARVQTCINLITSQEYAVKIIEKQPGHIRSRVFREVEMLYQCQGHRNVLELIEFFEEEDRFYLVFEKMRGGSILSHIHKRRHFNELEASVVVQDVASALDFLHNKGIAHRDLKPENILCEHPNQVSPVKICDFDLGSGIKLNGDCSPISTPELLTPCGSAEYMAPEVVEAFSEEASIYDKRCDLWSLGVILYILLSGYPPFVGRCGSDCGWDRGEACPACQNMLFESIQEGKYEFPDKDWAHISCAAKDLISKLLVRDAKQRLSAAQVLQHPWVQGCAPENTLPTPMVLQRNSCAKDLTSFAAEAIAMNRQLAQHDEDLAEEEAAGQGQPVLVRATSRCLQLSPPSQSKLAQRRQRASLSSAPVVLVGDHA

MSK2/RPS6KA4 = target: T26, MSK2/RPS6KA4 (Homo sapiens, UniProt O75676); test: HotSpot kinase assay; format: biochemical; conditions: read-out: % Enzyme Activity (relative to DMSO controls)
T26 construct: purchased Reaction Biology Corporation

NEK5 = target: T27, NEK5 (Homo sapiens, UniProt Q6P3R8); test: HotSpot kinase assay; format: biochemical; conditions: read-out: % Enzyme Activity (relative to DMSO controls)
T27 construct: purchased Reaction Biology Corporation

PKAcb = target: T28, PKAcb (Homo sapiens, UniProt P22694); test: HotSpot kinase assay; format: biochemical; conditions: read-out: % Enzyme Activity (relative to DMSO controls)
T28 construct: purchased Reaction Biology Corporation

PKCb1 = target: T29, PKCb1 (Homo sapiens, UniProt P05771); test: biochemical; conditions: read-out: % Enzyme Activity (relative to DMSO controls)
T29 construct: purchased Reaction Biology Corporation

RIPK5 = target: T30, RIPK5 (Homo sapiens, UniProt Q6XUX3); test: HotSpot kinase assay; format: biochemical; conditions: read-out: % Enzyme Activity (relative to DMSO controls)
T30 construct: purchased Reaction Biology Corporation

RON/MST1R = target: T31, RON/MST1R (Homo sapiens, UniProt Q04912); test: HotSpot kinase assay; format: biochemical; conditions: read-out: % Enzyme Activity (relative to DMSO controls)
T31 construct: purchased Reaction Biology Corporation

SGK1 = target: T32, SGK1 (Homo sapiens, UniProt O00141); test: HotSpot kinase assay; format: biochemical; conditions: read-out: % Enzyme Activity (relative to DMSO controls)
T32 construct: purchased Reaction Biology Corporation
T32 sequence (O00141 whole entry): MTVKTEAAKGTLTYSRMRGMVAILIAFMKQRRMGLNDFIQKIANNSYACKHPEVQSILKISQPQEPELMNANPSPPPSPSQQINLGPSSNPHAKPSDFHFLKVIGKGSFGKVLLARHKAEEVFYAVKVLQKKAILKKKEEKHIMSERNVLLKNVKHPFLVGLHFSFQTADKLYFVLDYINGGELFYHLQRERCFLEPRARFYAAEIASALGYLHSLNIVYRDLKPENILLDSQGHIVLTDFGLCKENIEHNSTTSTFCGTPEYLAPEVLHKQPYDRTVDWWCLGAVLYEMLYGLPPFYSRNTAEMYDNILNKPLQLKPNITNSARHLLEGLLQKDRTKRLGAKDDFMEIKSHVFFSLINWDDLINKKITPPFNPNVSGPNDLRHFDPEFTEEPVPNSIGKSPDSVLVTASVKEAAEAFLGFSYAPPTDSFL

STK21/CIT = target: T33, STK21/CIT (Homo sapiens, UniProt O14578); test: HotSpot kinase assay; format: biochemical; conditions: read-out: % Enzyme Activity (relative to DMSO controls)
T33 construct: purchased Reaction Biology Corporation
T33 sequence (O14578 whole entry): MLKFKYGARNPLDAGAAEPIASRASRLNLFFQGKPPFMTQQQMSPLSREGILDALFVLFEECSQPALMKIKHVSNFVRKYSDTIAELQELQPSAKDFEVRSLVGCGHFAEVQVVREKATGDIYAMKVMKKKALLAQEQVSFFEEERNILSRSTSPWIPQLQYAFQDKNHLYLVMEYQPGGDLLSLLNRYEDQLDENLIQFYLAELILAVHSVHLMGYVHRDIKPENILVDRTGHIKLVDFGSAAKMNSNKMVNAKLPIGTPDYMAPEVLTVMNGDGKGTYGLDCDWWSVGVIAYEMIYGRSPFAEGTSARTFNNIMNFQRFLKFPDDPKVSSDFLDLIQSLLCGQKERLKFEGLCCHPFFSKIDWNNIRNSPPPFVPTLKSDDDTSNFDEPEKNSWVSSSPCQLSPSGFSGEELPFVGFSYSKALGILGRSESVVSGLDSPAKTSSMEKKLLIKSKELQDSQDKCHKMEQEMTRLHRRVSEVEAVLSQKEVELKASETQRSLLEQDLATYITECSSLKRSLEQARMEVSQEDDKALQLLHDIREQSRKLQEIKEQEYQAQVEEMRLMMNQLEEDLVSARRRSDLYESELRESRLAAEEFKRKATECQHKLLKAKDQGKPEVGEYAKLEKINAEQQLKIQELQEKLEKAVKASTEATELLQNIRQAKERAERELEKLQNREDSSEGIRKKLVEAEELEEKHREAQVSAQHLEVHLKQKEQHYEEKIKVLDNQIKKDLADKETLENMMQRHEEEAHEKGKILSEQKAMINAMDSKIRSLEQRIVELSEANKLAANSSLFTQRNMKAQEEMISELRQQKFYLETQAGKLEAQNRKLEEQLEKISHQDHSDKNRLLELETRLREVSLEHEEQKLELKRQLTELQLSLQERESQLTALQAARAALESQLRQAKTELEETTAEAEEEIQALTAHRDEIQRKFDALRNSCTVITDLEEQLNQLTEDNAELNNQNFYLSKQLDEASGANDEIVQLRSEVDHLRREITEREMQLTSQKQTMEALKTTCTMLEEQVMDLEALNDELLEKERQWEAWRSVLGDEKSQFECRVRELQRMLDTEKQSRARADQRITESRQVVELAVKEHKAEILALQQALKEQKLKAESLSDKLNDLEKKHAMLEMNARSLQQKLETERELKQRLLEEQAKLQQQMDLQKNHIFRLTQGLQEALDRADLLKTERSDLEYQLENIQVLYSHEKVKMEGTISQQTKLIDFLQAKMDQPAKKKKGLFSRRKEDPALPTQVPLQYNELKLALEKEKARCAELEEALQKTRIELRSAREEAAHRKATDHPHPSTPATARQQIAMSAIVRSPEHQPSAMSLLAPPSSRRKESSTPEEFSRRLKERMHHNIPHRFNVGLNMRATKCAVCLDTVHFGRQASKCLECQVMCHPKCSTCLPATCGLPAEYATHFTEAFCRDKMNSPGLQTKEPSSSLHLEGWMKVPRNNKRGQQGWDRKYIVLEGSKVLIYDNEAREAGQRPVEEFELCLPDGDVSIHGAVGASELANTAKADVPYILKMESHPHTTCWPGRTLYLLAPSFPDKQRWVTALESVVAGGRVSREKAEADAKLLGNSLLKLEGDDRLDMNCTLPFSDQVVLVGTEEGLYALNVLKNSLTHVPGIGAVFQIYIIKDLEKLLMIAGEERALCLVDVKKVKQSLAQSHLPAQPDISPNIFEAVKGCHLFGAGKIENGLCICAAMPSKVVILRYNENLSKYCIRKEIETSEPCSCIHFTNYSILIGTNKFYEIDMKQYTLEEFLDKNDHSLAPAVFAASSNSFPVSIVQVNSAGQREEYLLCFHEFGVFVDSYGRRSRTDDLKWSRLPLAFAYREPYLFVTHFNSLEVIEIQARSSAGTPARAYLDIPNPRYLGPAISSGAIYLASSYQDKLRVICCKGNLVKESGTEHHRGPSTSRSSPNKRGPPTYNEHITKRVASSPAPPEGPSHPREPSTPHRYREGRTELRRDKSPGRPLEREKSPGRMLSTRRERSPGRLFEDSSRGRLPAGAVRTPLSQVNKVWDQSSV

STK22D/TSSK1 = target: T34, STK22D/TSSK1 (Homo sapiens, UniProt Q9BXA7); test: HotSpot kinase assay; format: biochemical; conditions: read-out: % Enzyme Activity (relative to DMSO controls)
T34 construct: purchased Reaction Biology Corporation
T34 sequence (Q9BXA7 whole entry): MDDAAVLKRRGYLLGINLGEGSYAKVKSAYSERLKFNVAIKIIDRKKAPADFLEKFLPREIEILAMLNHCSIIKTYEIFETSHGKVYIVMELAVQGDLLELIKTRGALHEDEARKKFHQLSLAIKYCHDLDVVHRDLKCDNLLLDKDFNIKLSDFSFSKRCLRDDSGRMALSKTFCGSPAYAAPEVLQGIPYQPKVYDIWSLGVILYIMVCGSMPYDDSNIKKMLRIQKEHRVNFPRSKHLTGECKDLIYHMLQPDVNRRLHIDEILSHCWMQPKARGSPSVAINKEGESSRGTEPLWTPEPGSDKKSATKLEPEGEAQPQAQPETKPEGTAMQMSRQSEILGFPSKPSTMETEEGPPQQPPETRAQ

TAOK3/JIK = target: T35, TAOK3/JIK (Homo sapiens, UniProt Q9H2K8); test: HotSpot kinase assay; format: biochemical; conditions: read-out: % Enzyme Activity (relative to DMSO controls)
T35 construct: purchased Reaction Biology Corporation

WNK1 = target: T36, WNK1 (Homo sapiens, UniProt Q9H4A3); test: HotSpot kinase assay; format: biochemical; conditions: read-out: % Enzyme Activity (relative to DMSO controls)
T36 construct: purchased Reaction Biology Corporation

[1] = tested on: intracellular Ca2+ response to HSV-2(G); test: calcium kinetic measurements (Fura-2), HaCat cells; format: cell-based, human; conditions: for mean calcium released: CIMSS without virus (Fig 4b source data)
Method: The cells were then transferred to SpectraMaxMF^e temperature-regulated chamber at 37 °C (Molecular Devices Ca) without washing; photometric data for intracellular Ca^2+ concentration [Ca^2+] were generated by exciting cells at 340 and 380 nm and measuring emission at 510 nm every minute for one hour using SoftMaxPro. 5.4 software (Molecular Devices). An intracellular calibration was performed with each experiment by determining the fluorescence ratio (340:380) in the presence of Ca-free 10 mM K2EGTA buffer (Rmin) and 10 mM CaEGTA buffer containing 10 µM ionomycin (Rmax) (C-3008, Calcium Calibration Buffer Kit #1, Invitrogen Molecular Probes).

PtdS and Akt = test: translocation of PtdS and Akt to the outer leaflet (microscopy), HSV-2 infected HaCat; format: cell-based, human; conditions: 10µM
HaCat cells = test: western blot for cleaved PARP-1 or cleaved caspase 8; conditions: 0.1, 1, or 10 µM, 8 h

CO[C@@H]1[C@H](N(C)C(=O)CCC(=O)NCc2cn(CCCS(=O)(=O)O)nn2)C[C@H]2O[C@]1(C)n1c3ccccc3c3c4c(c5c6ccccc6n2c5c31)C(=O)NC4 [CIMSS]
remaining activity at 10 µM (ACK1): 7.33%
remaining activity at 10 µM (ALK5/TGFBR1): 86.6%
remaining activity at 10 µM (ARK5/NUAK1): 1.83%
remaining activity at 10 µM (CAMK1b): 59.5%
remaining activity at 10 µM (CAMKK1): 1%
remaining activity at 10 µM (CDK2/cyclin A): 5.14%
remaining activity at 10 µM (CDK5/p35): 8.78%
remaining activity at 10 µM (CK1a1): 98.3%
remaining activity at 10 µM (CK1d): 106%
remaining activity at 10 µM (CK1g2): 98.5%
remaining activity at 10 µM (CSK): 2.41%
remaining activity at 10 µM (EPHA3): 37.9%
remaining activity at 10 µM (EPHA7): 6.91%
remaining activity at 10 µM (EPHB3): 28.9%
remaining activity at 10 µM (ERN1/IRE1): 8.49%
remaining activity at 10 µM (FGR): 1.68%
remaining activity at 10 µM (GSK3b): 2.85%
remaining activity at 10 µM (IRR/INSRR): 4.68%
remaining activity at 10 µM (JNK1): 24.8%
remaining activity at 10 µM (LATS2): 6.54%
remaining activity at 10 µM (LYN B): 2.95%
remaining activity at 10 µM (MAPKAPK3): 87.5%
remaining activity at 10 µM (MARK2/PAR-1Ba): 2.38%
remaining activity at 10 µM (MEK3): 49.3%
remaining activity at 10 µM (MNK2): 4.79%
remaining activity at 10 µM (MSK2/RPS6KA4): 2.11%
remaining activity at 10 µM (NEK5): 6.56%
remaining activity at 10 µM (PKAcb): 1.62%
remaining activity at 10 µM (PKCb1): 2.83%
remaining activity at 10 µM (RIPK5): 22.7%
remaining activity at 10 µM (RON/MST1R): 25.1%
remaining activity at 10 µM (SGK1): 13.4%
remaining activity at 10 µM (STK21/CIT): 81.7%
remaining activity at 10 µM (STK22D/TSSK1): 2.71%
remaining activity at 10 µM (TAOK3/JIK): 12.8%
remaining activity at 10 µM (WNK1): 110%
extended Ca2+ release ([1]; 10 µM, first hour pi): significant reduction
initial Ca2+ transient ([1]; 10 µM, first three minutes): did not block
mean calcium released ([1]; 3 minutes): 38.88 and 30.45 and 39.3074 and 44.7233
mean calcium released ([1]; 1 hour): 90.67 and 95.94 and 99.48 and 102.73
translocation of PtdS and Akt to the outer leaflet of the plasma membrane (PtdS and Akt): did not block
PARP-1 or caspase 8 cleavage (HaCat cells): did not induce
